Experimental data: patent publication US20240239786A1, “COMPOSITIONS AND METHODS FOR THE TREATMENT AND PREVENTION OF CANCER” (Yale University, priority 2021, published 2024)

Tests used:
PEO4 cells = assay: Flow cytometric EdU incorporation (DNA synthesis) assay, PEO4; assay type: cell-based; conditions: for time-dependent inhibition of DNA synthesis (EdU-positive cells): 30 μM DB4 or 1 μM triapine, 3, 6, 24 hr
Protocol: Cells were plated for 24 hr and then treated with 50 μM compounds for 72 hr. For a positive control, cells were treated with 1 μM triapine for 72 hr. The percentage of cell survival was determined by the MTS cytotoxicity assay. […] Cells were treated with 50 μM compounds or 1 μM triapine for 24 hr. During the last hour, cells were pulse-labeled with EdU, stained with the Click-iT EdU Alexa Fluor 488 Assay Kit, counterstained with 7-AAD, and subsequently analyzed by flow cytometry. EdU-positive cells were gated to determine the percentage of the S phase cell population. The bivariate plots of Alexa Fluor 488 (EdU-positive) and PE-Cy5 (7-AAD-positive) are shown. […] Cells were treated with 50 μM compounds or 1 μM triapine for 24 hr. During the last hour, cells were pulse-labeled with EdU, stained with the Click-iT EdU Alexa Fluor 488 Assay Kit, counterstained with 7-AAD, and subsequently analyzed by flow cytometry. EdU-positive cells were gated to determine the percentage of the S phase cell population. The percentages of DNA synthesis in cells treated with each of 10 compounds and triapine relative to the DMSO-treated control is calculated and shown. FIG. 2D depicts representative results of dNTP measurement on triapine and DB4 in PEO4 cells. Cells were treated with 1 μM triapine or 50 μM DB4 for 24 hr. Cells were extracted with 65% methanol for determination of each of dNTPs expressed as pmole/10^6 cells. Data are means±SD (N=3). *, p<0.05; **, p<0.01; ***, p<0.001, compared with the DMSO-treated control in each dNTP. […] The percentage of cell survival was determined by the MTS cytotoxicity assay. […]
PEO1 cells were treated with 30 μM DB4 or 1 μM triapine for indicated times, pulsed with EdU for 1 hr and subsequently assayed for DNA synthesis inhibition as described in FIG. 2B. […] Protein was analyzed by western blotting for p-Chk1, p-ATR, p-RPA32, γH2AX, and HSC70. […] DSB end resection is assessed by the level of p-RPA32. […]

CDK2 activity = assay: Western blot time course of CDK2 activity in PEO4 cells; assay type: cell-based; conditions: for level of phosphorylated histone H1 (readout of CDK2 activity) / levels of cyclin A2 and CDK2 phosphorylation: 30 μM DB4 or 1 μM triapine; for levels of cyclin A2 and CDK2 phosphorylation: 24 hr
Protocol: PEO1 cells were treated with 30 μM DB4 or 1 μM triapine for indicated times, pulsed with EdU for 1 hr and subsequently assayed for DNA synthesis inhibition as described in FIG. 2B. The bivariate plots of Alexa Fluor 488 and PE-Cy5 were gated to determine % S phase cells. […] PEO4 cells were treated with 30 μM DB4 or 1 μM triapine for indicated times, pulsed with EdU for 1 hr and subsequently assayed for DNA synthesis inhibition as described in FIG. 2B. The bivariate plots of Alexa Fluor 488 and PE-Cy5 were gated to determine % S phase cells. […] The bivariate plots of Alexa Fluor 488 and PE-Cy5 shown in FIG. 6A and FIG. 6B were gated to determine % cells in G1, S, and G2/M phases. […] PEO4 cells were treated with 30 μM DB4 or 1 μM triapine for various time periods and subjected to western blot analysis for the levels of cyclin A2, p-CDK1/2, p-H1, p-Chk1, and HSC70. The HSC70 protein level was used as a loading control. Cropped gel images of protein bands are presented. Cyclin A2, p-CDK1/2, and p-H1 bands were from re-probing the same blot. p-Chk1 and HSC70 bands were from re-probing the same duplicated blot. […] The CDK2 activity is expressed by the percentage of the p-HI levels relative to that of the 0 hr control is shown. […] Protein was analyzed by western blotting for p-Chk1, p-ATR, p-RPA32, γH2AX, and HSC70. Cropped gel images of protein bands are presented. All protein bands were from re-probing the same blot. DSB end resection is assessed by the level of p-RPA32.
Additional studies focused on determining how DB4 inhibited CDK2 activity in comparison with triapine. […] In contrast, triapine increased the levels of cyclin A2 and CDK2 phosphorylation evidently at 24 hr. Because CDK2 phosphorylation is inhibitory, the level of phosphorylated histone H1, a substrate of CDK2, was determined as a readout of CDK2 activity (Lin Z P et al., 2014, Molecular Cancer Res, 12:381-393) to reconcile this discrepancy. […] The kinetics of CDK2 activity somewhat resembled to the level of DNA synthesis caused by DB4 and triapine.
The methodology was described previously (Lin Z P et al., 2014, Molecular Cancer Res, 12:381-393; Ratner E S et al., 2016, Br J Cancer, 114:777-786). The anti-HSC70 antibody was purchased from Santa Cruz (Santa Cruz, CA). Anti-cyclin A2, anti-phospho-ATR (Thr-1981), anti-phospho-Chk1 (Ser-345), anti-phospho-CDK1/2 (Tyr-15), and anti-Y-H2AX (Ser-139) antibodies were from Cell Signaling (Danvers, MA). Anti-phospho-RPA32 (S4/S8) and anti-BRCA2 antibodies were from Bethyl Laboratories (Montgomery, TX). Anti-phospho-histone H1 antibody was from Millipore-Sigma (Burlington, MA). To avoid the cross-reaction of secondary antibodies with previously probed primary antibodies, blots were stripped and re-probed with next primary antibodies raised in a different species in an alternate fashion. All images were acquired and processed using the G: BOX gel documentation system and the GeneSnap software (Syngene, Frederick, MD). Brightness and contrast of images were applied equally across the entire gel/blot image and to controls. Images of protein bands were cropped and only brightness-adjusted using the PowerPoint software (Microsoft, Redmond, WA). Quantification of the protein band intensity was performed using the ImageJ software (NIH, Bethesda, MD).

Structure (SMILES) | time-dependent inhibition of DNA synthesis (EdU-positive cells) (PEO4 cells) | level of phosphorylated histone H1 (readout of CDK2 activity) (CDK2 activity) | levels of cyclin A2 and CDK2 phosphorylation (CDK2 activity) | inhibition at 50 µM (PEO4 cells; 50 μM, 24 hr) | Chk1 phosphorylation (CDK2 activity; time course, drug alone)
NC(=S)NN=Cc1ncccc1N [triapine, 3-aminopyridine-2-carboxaldehyde-thiosemicarbazone, reference compound] | prompt reduction in EdU-positive cells | reduced the level of phosphorylated histone H1 earlier starting at 3 hr | increased | – | –
C=CCn1c(SCc2cccc(Cl)c2)nnc1C1CCN(Cc2nc3ccccc3s2)CC1 [DB4, 2-[(4-{4-allyl-5-[(3-chlorobenzyl)thio]-4H-1,2,4-triazol-3-yl}-1-piperidinyl)methyl]-1,3-benzothiazole] | gradual decline in the EdU-positive cell population | down-regulation of phosphorylated histone H1 at 24 hr | downregulated | > 99% | did not induced Chk1 phosphorylation
